# Data from patent publication US6555523B1, “Use of cirsiliol and derivatives to treat infections” (priority 1999, dated 2003).
# “And” between values parts separate entries of the source, which are not always exact repeats. Equal values may be shown once.
# Key:
# [1] = tested on: parainfluenza HA-1; assay: CPE-inhibition (microscopic) assay, Protocol A2; format: cell-based, parainfluenza virus; details: HEp-2, cell Hep2 (cell blank for 3-(4′-bromophenyl) coumarin)
# [2] = tested on: T, gondii RH; assay: In-vitro anti Toxoplasma gondii activity in HFF, Protocol C; format: cell-based
# Procedure: Protocol C—In-vitro testing of anti Toxoplasma gondii activity of Cirsiliol and Naringin. The compounds were tested in an in vitro cell culture assay utilizing human fibroblasts (HFF line) as the host cell. RH strain Toxoplasma gondii that has been transfected with β-galactosidase as a marker for quantitative detection of parasite number (RH Bgal), was used as the challenge organism. The compounds ere dissolved, and then diluted in cell culture medium at least 100 fold for the assays. Controls containing the maximum concentration of solvent used in the assay were run with each test. The active drugs were added and the monolayers were infected immediately at the beginning of each test. Extracellular T. gondii were removed by rinsing the monolayer, and infected host cells remained in contact with the cells for the entire test period. Each test was terminated when at least four parasite doublings could be visually identified in the control monolayers, and parasite numbers were quantitated by standard colorimetric assay for bet galactosidase activity with optical density at 550 nm as the readout. The optical density in this assay has a direct and linear correlation with parasite numbers over a 5-log parasite concentration. Toxicity in the host cells was determined by inspection for cytopathic effects and visual evaluation of cell growth.
# [3] = tested on: HIV Ba-L; assay: Anti-HIV assay in fresh human monocyte-macrophages (p24 ELISA), Protocol D2; format: cell-based; details: Human immunodeficiency virus 1, BAL, Macrophage
# Procedure: Protocol D2—Assay in fresh human monocyte-macrophages. […] The cells are placed in a 96-well microtiter plate at 37° C. for 2 hours. Non-adherent cells are removed by vigorously washing six times. […] The cultures are carefully monitored for confluency during this incubation period. Infection of the cells is performed with monocytotropic HIV-1 isolates. High titer pools of each of these viruses are harvested from infected cultures of peripheral blood adherent cells and frozen in 1.0 ml aliquots at −80° C. Monocytemacrophage monolayers are infected at a multiplicity of infection (“MOI”) of 0.1.
# (§3) At 2 days post-infection, the medium is decanted and the cultures washed twice with complete medium in order to remove excess virus. Fresh medium alone or medium containing the appropriate concentration of drug is added and incubation continued for an additional five days. XTT staining for cytotoxicity and HIV p24 ELISA assays for production of p24 core antigen are performed on Day 7 post infection. This is performed according the ELISA kit assay manufacturers recommendations. Control curves are generated in each assay to accurately quantitate the amount of capsid protein in each sample. Data is obtained by spectrophotometric analysis at 450 nm using a Molecular Devices Vmax plate reader. P24 concentrations are calculated form the optical density values by use of the Molecular Device software package Soft Max.
# Most of the values were based on average values that were obtained from duplicate or triplicate assay wells.
# [4] = Drug cytotoxicity by XTT in monocyte-macrophages, Protocol D2; format: cell-based; details: human; macrophage; D2; naringin solubilised in 35% EtOH; read-out: TC50
# Procedure: Protocol D2—Assay in fresh human monocyte-macrophages. […] The cells are placed in a 96-well microtiter plate at 37° C. for 2 hours. Non-adherent cells are removed by vigorously washing six times. […] The cultures are carefully monitored for confluency during this incubation period. Infection of the cells is performed with monocytotropic HIV-1 isolates. […] Monocytemacrophage monolayers are infected at a multiplicity of infection (“MOI”) of 0.1.
# as §3
# [5] = tested on: Bovine Viral Diarrhea Virus; assay: Plaque formation by Bovine Viral Diarrhea Virus in MDBK cultures; format: cell-based, bovine viral diarrhea virus (BVDV); details: for Number of plaques: Tests 1-3, control 68; for % Reduction: plaques
# Procedure: HCV in vitro assays. No well-accepted model exists for HCV and new compounds for use in the treatment of HCV are frequently tested for activity against bovine viral diarrhea virus (BVDV), a virus which is related to HCV.
# A representative compound according to the present invention, naringin (i.e., 7-neohesperidoside, 5, 4′ dihydroxyflavanone) was tested for anti-BVDV activity in MDBK cells.
# [6] = tested on: hepatitis C virus; assay: Human HCV clinical trial, one patient (HCV and HIV infected), naringin 4 g orally three times daily: hepatitis C RNA; format: in vivo; details: for Hepatitis C by PCR log 10: Day 0: 6.5; for Hepatitis C RNA ultraquant: Day 0: 2,871,300, ref. <200
# Procedure: (§1) Human HCV clinical trial. A human patient suffering from hepatitis C virus was treated according to the following regimen: initial dosing beginning on Day 0 (see Table C), three times daily, the patient ingested 4 g of naringin orally, and then drank hot tea; in later days, the patient ingested, three times daily, 4 g of naringin mixed in hot tea. This patient also suffered from HIV infection.
# (§2) The tables below, labeled part 1 through part 4, show data from this patients' bloodwork on Day 0 (when treatment according to this invention was initiated), Day 3 (3 days after Day 0), Day 6 (6 days after Day 0) and Day 9 (9 days after Day 0). In addition, the tables include data from this patients' bloodwork 72 days before Day 0 (“Day −72”).
# [7] = Human HCV clinical trial, one patient (HCV and HIV infected), naringin 4 g orally three times daily: bloodwork and urine values; format: in vivo; details: for Basophils: Day 0: 0; for Basophils / Eosinophils: ref. 0-5%; for Creatinine: Day 0: 0.5, ref. 0.5-1.2; for Eosinophils: Day 0: 1; for WBC: Day 0: 3.2, ref. 4-11 × 10^3; for RBC: Day 0: 4.7, ref. 3.9-5.1 × 10^6; for Monocytes: Day 0: 5, ref. 0-10%; for Hemoglobin: Day 0: 14, ref. 13.0-17.0; for Lymphocytes: Day 0: 29, ref. 15-50%; for MCH: Day 0: 30; for MCHC: Day 0: 34, ref. 32-36%; for Hematocrit: Day 0: 41.7, ref. 36-46%; for Glucose: Day 0: 76; for SGOT: Day 0: 83; for Platelet Count: Day 0: 96, ref. 150-400 × 10^3; for SGPT: Day 0: 112; for Specific Gravity: ref. 1.005-1.035; for pH: ref. 4.5-7.5; for Acetone, Urine / Bilirubin / Glucose, Urine / Leukocyte esterase / Nitrite / Occult Blood / Protein, Urine: ref. Negative
# Procedure: as §1, §2
# [8] = tested on: MDBK cells; details: cattle
# Procedure: As a comparison, similar tests were conducted using ribavirin.
# [9] = in vitro; details: human
smiles,measurement,setting,value
"C[C@@H]1O[C@@H](O[C@H]2[C@H](Oc3cc(O)c4c(c3)O[C@H](c3ccc(O)cc3)CC4=O)O[C@H](CO)[C@@H](O)[C@@H]2O)[C@H](O)[C@H](O)[C@H]1O [Naringin, 7-neohesperidoside, 5, 4′ dihydroxyflavanone]",IC50,[1],25 µM
same,IC50,[2],> 100 µM
same,IC50,"[3]; D2, naringin solubilised in 35% EtOH",86.2 µM
same,IC50,"[3]; D2, naringin solubilised in 95% EtOH",> 100 µM
same,CC50 at 7 days,[4],> 100 µM
same,ID50,"[5]; BVDV plaque formation in MDBK, table footnote, unit from the table's concentration head",631.39 µg/mL
same,Number of plaques,[5]; naringin 31.25 μg/mL,65 and 75 and 60
same,Number of plaques,[5]; naringin 62.50 μg/mL,57 and 65
same,Number of plaques,[5]; naringin 125.00 μg/mL,52 and 65 and 61
same,Number of plaques,[5]; naringin 250.00 μg/mL,50 and 58 and 52
same,Number of plaques,[5]; naringin 500.00 μg/mL,32 and 45 and 42
same,Number of plaques,[5]; naringin 1000.00 μg/mL,22 and 25 and 14
same,Number of plaques,[5]; naringin 1500.00 μg/mL,8 and 11
same,Number of plaques,[5]; naringin 2000.00 μg/mL,4 and 3
same,% Reduction,[5]; naringin 31.25 μg/mL,2.39%
same,% Reduction,[5]; naringin 62.50 μg/mL,12.64%
same,% Reduction,[5]; naringin 125.00 μg/mL,13.12%
same,% Reduction,[5]; naringin 250.00 μg/mL,21.91%
same,% Reduction,[5]; naringin 500.00 μg/mL,41.92%
same,% Reduction,[5]; naringin 1000.00 μg/mL,70.22%
same,% Reduction,[5]; naringin 1500.00 μg/mL,86.82%
same,% Reduction,[5]; naringin 2000.00 μg/mL,95.11%
same,Hepatitis C by PCR log 10,[6]; Day 3,6.2
same,Hepatitis C RNA ultraquant,[6]; Day 3,"1,500,900 copies/mL"
same,Hepatitis C by PCR log 10,[6]; Day 6,5.5
same,Hepatitis C RNA ultraquant,[6]; Day 6,"340,540 copies/mL"
same,Hepatitis C by PCR log 10,[6]; Day 9,4.9
same,Hepatitis C RNA ultraquant,[6]; Day 9,"78,592 copies/mL"
same,patient's hepatitis C PCR values,"[6]; summary in words, Day 0 to Day 9",drastic reduction
same,Appearance,[7]; Day 3,Clear
same,Color,[7]; Day 3,Yellow
same,Basophils,[7]; Day 3,1%
same,Creatinine,[7]; Day 3,0.5 mg/dL
same,Eosinophils,[7]; Day 3,0%
same,WBC,[7]; Day 3,3.3 × 10^3 /mm^3
same,RBC,[7]; Day 3,4.71 × 10^6 /mm^3
same,Monocytes,[7]; Day 3,10%
same,Hemoglobin,[7]; Day 3,13.9 g/dL
same,Lymphocytes,[7]; Day 3,25%
same,MCH,[7]; Day 3,30 picograms
same,MCHC,[7]; Day 3,34%
same,Hematocrit,[7]; Day 3,40.5%
same,Glucose,[7]; Day 3,98 mg/dL
same,SGOT,[7]; Day 3,62 u/L
same,Platelet Count,[7]; Day 3,104 × 10^3 /mm^3
same,SGPT,[7]; Day 3,102 u/L
same,Specific Gravity,[7]; Day 3,1.024
same,pH,[7]; Day 3,5
same,"Acetone, Urine",[7]; Day 3,Negative
same,Bilirubin,[7]; Day 3,Negative
same,"Glucose, Urine",[7]; Day 3,Negative
same,Leukocyte esterase,[7]; Day 3,Negative
same,Nitrite,[7]; Day 3,Negative
same,Occult Blood,[7]; Day 3,Negative
same,"Protein, Urine",[7]; Day 3,Negative
same,Appearance,[7]; Day 6,Clear
same,Basophils,[7]; Day 6,1%
same,Creatinine,[7]; Day 6,0.5 mg/dL
same,Eosinophils,[7]; Day 6,1%
same,WBC,[7]; Day 6,3.4 × 10^3 /mm^3
same,RBC,[7]; Day 6,4.6 × 10^6 /mm^3
same,Monocytes,[7]; Day 6,6%
same,Hemoglobin,[7]; Day 6,13.7 g/dL
same,Lymphocytes,[7]; Day 6,28%
same,MCH,[7]; Day 6,30 picograms
same,MCHC,[7]; Day 6,34%
same,Hematocrit,[7]; Day 6,40.1%
same,Glucose,[7]; Day 6,93 mg/dL
same,SGOT,[7]; Day 6,38 u/L
same,Platelet Count,[7]; Day 6,112 × 10^3 /mm^3
same,SGPT,[7]; Day 6,62 u/L
same,Specific Gravity,[7]; Day 6,1.017
same,pH,[7]; Day 6,6
same,"Acetone, Urine",[7]; Day 6,Negative
same,Bilirubin,[7]; Day 6,Negative
same,"Glucose, Urine",[7]; Day 6,Negative
same,Leukocyte esterase,[7]; Day 6,Negative
same,Nitrite,[7]; Day 6,Negative
same,Occult Blood,[7]; Day 6,Negative
same,"Protein, Urine",[7]; Day 6,Negative
same,patient's SGOT values,[7]; summary in words,drastic reduction
same,patient's SGPT values,[7]; summary in words,drastic reduction
same,MTC (minimum cytotoxic drug concentration),[8],> 2000 µg/mL
same,CC50,[9],100 µM
